Test in data set [1]: not given
The source holds these as a separate data set.

The target in another data set is T1, CDK2/CyclinA2 (Homo sapiens, UniProt P24941).
T1 construct: Wild-type, full length CDK2 in complex with wildtype, full length CyclinA2: Carna Cat #04-103; purchased Carna 04-103
Briefly: CDK2/CyclinA2 ChEF Assay (Table A). The format is biochemical. How it is done:
500 nL of 50× compound in 100% DMSO is added to a 384-well low volume, white assay plate. 19.5 μL of 1.3×CDK2/CyclinA2 (Wild-type, full length CDK2 in complex with wildtype, full length CyclinA2: Carna Cat #04-103 diluted in assay buffer (50 mM Hepes, 0.01% Brij-35, 10 mM MgCl2, 0.5 mM EGTA, 1% Glycerol, and 1.2 mM DTT) is added to the plates on top of the compound and pre-incubated for 30 minutes at room temperature. Following the incubation, 5 μL of 5×Sox-chromophore (CSox) labeled peptide substrate (AQT0255, AssayQuant) & ATP diluted in assay buffer is added to the plate to initiate the reaction. The assay is incubated at room temperature for 45 min after initiation. The CSox peptide substrate is phosphorylated by CDK2/A2 upon ATP hydrolysis.
(§1) The fluorescent intensity measurement of the assay plate for all assays described above is read on a microplate reader once the assay is initiated and again at the completion of the assay. Phosphorylation of the CSox-based peptide substrate sensor results in an immediate increase in fluorescence. These raw fluorescence intensity values are normalized to calculate percent inhibition, which are fit to a four-parameter logistic curve and IC50 values are calculated. IC50 values are converted to Ki using substrate, KM^app values, and the Cheng-Prusoff equation.

The target in another data set is T2, CDK1/CyclinB1 (Homo sapiens, UniProt P06493).
T2 construct: Wild-type, full length CDK1 in complex with wildtype, full length CyclinB1: Carna Cat #04-102; purchased Carna 04-102
Kind of data set: CDK1/CyclinB1 ChEF Assay (Table A).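 Further: Ki reported in nM.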 The format is biochemical. The following applies: read-out: CDK1/CCNB1 ChEF Ki: Average Ki. How it is done: 500 nL of 50× compound in 100% DMSO is added to a 384-well low volume, white assay plate. 19.5 μL of 1.3×CDK1/CyclinB1 (Wild-type, full length CDK1 in complex with wildtype, full length CyclinB1: Carna Cat #04-102) diluted in assay buffer (50 mM Hepes, 0.01% Brij-35, 10 mM MgCl2, 0.5 mM EGTA, 1% Glycerol, and 1.2 mM DTT) is added to the plates on top of the compound and pre-incubated for 30 minutes at room temperature. Following the incubation, 5 μL of 5×Sox-chromophore (CSox) labeled peptide substrate (AQT0297, AssayQuant) & ATP diluted in assay buffer is added to the plate to initiate the reaction. The assay is incubated at room temperature for 30 min after initiation. The CSox peptide substrate is phosphorylated by CDK1/B1 upon ATP hydrolysis.
as §1

The target in data set [2] is T3, CDK9/CyclinT1 (Homo sapiens, UniProt P50750). Briefly: CDK9/CyclinT1 ChEF Assay (Table A). Format: biochemical. On the set-up: Wild-type, full length CDK9 in complex with wildtype, full length CyclinT1: Invitrogen Cat #PV4131; purchased Invitrogen PV4131. The conditions noted are these: 10xKm, read-out: CDK9/CCNT1 ChEF 10xKm Ki: Average Ki. How it is done:
500 nL of 50× compound in 100% DMSO is added to a 384-well low volume, white assay plate. 19.5 μL of 1.3×CDK9/CyclinT1 (Wild-type, full length CDK9 in complex with wildtype, full length CyclinT1: Invitrogen Cat #PV4131) diluted in assay buffer (50 mM Hepes, 0.01% Brij-35, 10 mM MgCl2, 0.5 mM EGTA, 1% Glycerol, and 1.2 mM DTT) is added to the plates on top of the compound and pre-incubated for 30 minutes at room temperature. Following the incubation, 5 μL of 5×Sox-chromophore (CSox) labeled peptide substrate (AQT0449, AssayQuant) & ATP diluted in assay buffer is added to the plate to initiate the reaction. The assay is incubated at room temperature for 120 min after initiation. The CSox peptide substrate is phosphorylated by CDK9/T1 upon ATP hydrolysis.
as §1
Target sequence in this assay (P50750 whole entry): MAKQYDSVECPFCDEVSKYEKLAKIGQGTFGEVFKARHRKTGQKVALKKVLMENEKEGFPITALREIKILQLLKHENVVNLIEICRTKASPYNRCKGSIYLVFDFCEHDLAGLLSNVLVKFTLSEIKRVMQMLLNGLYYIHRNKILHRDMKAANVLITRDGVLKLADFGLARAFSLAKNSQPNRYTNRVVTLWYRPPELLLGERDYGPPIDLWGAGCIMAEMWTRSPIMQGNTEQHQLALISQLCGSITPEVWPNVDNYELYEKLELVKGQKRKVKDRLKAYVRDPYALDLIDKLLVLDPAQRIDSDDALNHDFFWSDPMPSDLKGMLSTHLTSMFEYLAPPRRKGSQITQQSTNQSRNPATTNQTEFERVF
Target sequence in this assay (O60563 whole entry partner): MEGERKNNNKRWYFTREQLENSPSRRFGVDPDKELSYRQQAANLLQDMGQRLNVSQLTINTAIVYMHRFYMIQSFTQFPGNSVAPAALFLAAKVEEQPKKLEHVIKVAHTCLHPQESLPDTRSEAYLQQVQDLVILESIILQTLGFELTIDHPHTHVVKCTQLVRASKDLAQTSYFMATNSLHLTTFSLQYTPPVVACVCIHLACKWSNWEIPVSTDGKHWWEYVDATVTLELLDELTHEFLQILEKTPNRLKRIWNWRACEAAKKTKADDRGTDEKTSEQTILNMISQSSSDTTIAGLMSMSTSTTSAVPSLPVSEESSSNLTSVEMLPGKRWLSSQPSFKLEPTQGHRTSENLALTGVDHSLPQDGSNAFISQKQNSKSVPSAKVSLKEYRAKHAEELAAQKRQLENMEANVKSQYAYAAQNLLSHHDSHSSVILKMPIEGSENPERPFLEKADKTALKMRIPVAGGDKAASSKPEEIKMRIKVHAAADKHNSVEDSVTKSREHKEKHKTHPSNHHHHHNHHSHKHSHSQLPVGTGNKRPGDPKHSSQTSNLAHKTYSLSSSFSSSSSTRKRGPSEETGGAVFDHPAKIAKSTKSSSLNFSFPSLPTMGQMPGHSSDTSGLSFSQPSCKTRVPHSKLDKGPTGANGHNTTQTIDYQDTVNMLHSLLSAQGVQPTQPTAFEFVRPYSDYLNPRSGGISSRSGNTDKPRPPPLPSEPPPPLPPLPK

Data set [3] addresses T3, CDK9/CyclinT1. Kind of data set: CDK9/CyclinT1 Mobility Shift Assay (Caliper, Table B). Format: biochemical. Set-up: Wild-type, full length CDK9 in complex with wildtype, CyclinT1 (1-259): Biortus Cat #BP480/792/691; purchased Biortus BP480/792/691. The following applies: read-out: CDK9/Cyclin T1 Caliper Ki: Average Ki. The procedure: 10 nL of 2000× compound in 100% DMSO is added to a 384-well polypropylene assay plate. 15 μL of 1.3×CDK9/T1 and 1.3× fluorescent substrate (Wild-type, full length CDK9 in complex with wildtype, CyclinT1 (1-259): Biortus Cat #BP480/792/691 and FL-Peptide 34: PerkinElmer Cat #760643) diluted in kinase buffer (50 mM Hepes, 0.01% Brij-35, 10 mM MgCl2, 1 mM EGTA, 0.05% BSA, and 2 mM DTT) is added to the plates on top of the compound, mixed, and pre-incubated for 30 minutes at room temperature. The fluorescently labeled peptide substrate is phosphorylated by CDK9/T1 upon ATP hydrolysis. Following the incubation, 5 μL of 4×ATP diluted in kinase buffer is added to the plate to initiate the reaction. Following the 30-minute incubation, the reaction is stopped by adding 75 μL of stopping buffer containing 0.5 M EDTA.
The assay plate is then read on a Lab Chip EZ Reader which separates the fluorescently labeled substrate and product peptides through a mobility difference. The phosphorylation of the substrate imparts a negative charge, which allows differences in separation as both are pulled through the microfluidic chip. The ratio of substrate and product values are used to generate percent conversion. These raw percent conversion values are normalized to calculate percent inhibition, which are fit to a four-parameter logistic curve and IC50 values are calculated. IC50 values are converted to Ki using substrate, Kmapp values, and the Cheng-Prusoff equation.
Target sequence in this assay (P50750 whole entry): as the sequence (P50750 whole entry) above
Target sequence in this assay (O60563 1-259 partner limits assumed): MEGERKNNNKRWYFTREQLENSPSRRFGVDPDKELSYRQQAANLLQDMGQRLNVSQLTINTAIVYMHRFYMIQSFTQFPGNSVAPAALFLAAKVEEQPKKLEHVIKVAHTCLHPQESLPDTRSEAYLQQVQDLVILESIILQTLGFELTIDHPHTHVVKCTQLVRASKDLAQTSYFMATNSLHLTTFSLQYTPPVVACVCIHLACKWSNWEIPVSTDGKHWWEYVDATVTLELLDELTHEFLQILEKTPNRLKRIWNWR

Like-named read-outs stand apart in the source and are kept apart here.

Experimental findings from US20260200943A1, “COMPOUNDS FOR TREATING CANCER” (Genesis Therapeutics, Inc., priority 2022, published 2026) are described below.

T2 sequence (P06493 whole entry): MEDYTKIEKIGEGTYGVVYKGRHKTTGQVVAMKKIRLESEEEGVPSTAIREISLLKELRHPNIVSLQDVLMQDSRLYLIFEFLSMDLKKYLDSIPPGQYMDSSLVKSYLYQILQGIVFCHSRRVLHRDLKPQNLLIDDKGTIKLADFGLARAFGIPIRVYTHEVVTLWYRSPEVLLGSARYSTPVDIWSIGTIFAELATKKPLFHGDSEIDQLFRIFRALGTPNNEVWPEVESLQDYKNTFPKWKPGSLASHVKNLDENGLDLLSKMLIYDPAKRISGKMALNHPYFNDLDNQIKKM
T2 sequence (P14635 whole entry partner): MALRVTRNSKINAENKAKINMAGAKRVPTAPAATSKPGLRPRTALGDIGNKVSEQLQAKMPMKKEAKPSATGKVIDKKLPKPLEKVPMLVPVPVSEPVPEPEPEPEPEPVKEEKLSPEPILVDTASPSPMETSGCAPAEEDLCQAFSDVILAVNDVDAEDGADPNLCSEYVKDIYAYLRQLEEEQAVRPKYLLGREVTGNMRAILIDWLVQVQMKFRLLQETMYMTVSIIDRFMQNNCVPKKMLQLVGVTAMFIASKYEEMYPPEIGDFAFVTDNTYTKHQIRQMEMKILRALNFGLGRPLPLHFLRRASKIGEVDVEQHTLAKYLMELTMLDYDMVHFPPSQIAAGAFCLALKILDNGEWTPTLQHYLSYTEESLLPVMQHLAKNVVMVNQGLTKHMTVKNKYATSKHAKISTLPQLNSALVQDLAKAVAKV

The compound `CC(C)(C)OC(=O)NCCCCCNc1cc(Nc2ncc(C3CCC(OC(=O)Oc4ccc([N+](=O)[O-])cc4)C3)cn2)ccc1S(=O)(=O)NC(=O)OC(C)(C)C` (stereo not drawn) registered a ring closure, isolated yield (the molecule shown is the open-chain precursor, other bond, 20-membered ring, HCOOH, then DIEA, DMF, 76.7 mM, 50.0 °C, 2 steps) of 39.5%.

For the compound `CC(C)(C)OC(=O)NCCOCCNS(=O)(=O)c1ccc(Nc2cc([C@H]3CC[C@@H](OC(=O)Oc4ccc([N+](=O)[O-])cc4)C3)n(C(C)(C)C)n2)c(F)c1`, the ring closure, isolated yield (the molecule shown is the open-chain precursor, other bond, 21-membered ring, TFA, then DIPEA, DCE, 5.25 mM, 25.0 °C, 2 steps) was found to be 62.3%.

In the case of `CC(C)(C)n1nc2cc1[C@H]1CC[C@H](C1)OC(=O)NCCCCCCNS(=O)(=O)C1CCC(CC1)N2`, the ring closure, yield of all isomers in data set [1] (from CC(C)(C)OC(=O)NCCCCCCNS(=O)(=O)C1CCC(Nc2cc([C@H]3CC[C@@H](OC(=O)Oc4ccc([N+](=O)[O-])cc4)C3)n(C(C)(C)C)n2)CC1, other bond, DIPEA, DCE, 4.26 mM, 25.0 °C, 18.0 h, 2 steps) came out at 50%.

`CC(C)(C)n1nc2cc1[C@H]1CC[C@H](C1)OC(=O)NCCOCCNS(=O)(=O)c1ccc(c(F)c1)N2` came in with a ring closure, yield of all isomers in data set [1] (from CC(C)(C)OC(=O)NCCOCCNS(=O)(=O)c1ccc(Nc2cc([C@H]3CC[C@@H](OC(=O)Oc4ccc([N+](=O)[O-])cc4)C3)n(C(C)(C)C)n2)c(F)c1, other bond, DIPEA, DCE, 5.25 mM, 25.0 °C, 18.0 h, 2 steps) of 62.3%.

In data set [1] (from Cn1ncc(S(=O)(=O)N2CCC(N)CC2)c1C(=O)NCCCCCOc1nc(Cl)ncc1Br, snar bond, K2CO3, DMSO, 6.02 mM, 110.0 °C, 2.0 h), `Cn1ncc2c1C(=O)NCCCCCOc1nc(ncc1Br)NC1CCN(CC1)S2(=O)=O` gave a ring closure, yield of all isomers of 33%.

`Cn1ncc2c1C(=O)NCCCCCOc1nc(ncc1Cl)NC1CCN(CC1)S2(=O)=O` had a ring closure, isolated yield (from Cn1ncc(S(=O)(=O)N2CCC(N)CC2)c1C(=O)NCCCCCOc1nc(Cl)ncc1Br, snar bond, 19-membered ring, K2CO3, DMSO, 6.02 mM, 110.0 °C) of 33%.

In the case of `NCCCCCOc1cc(Nc2ncc(C3CCC(OC(=O)Oc4ccc([N+](=O)[O-])cc4)C3)cn2)ccc1S(N)(=O)=O` (stereo not drawn), under “the molecule shown is the open-chain precursor, other bond, 20-membered ring, DIEA, DMF, 41.5 mM, 50.0 °C”, the ring closure, isolated yield came to 11.1%.

`NS(=O)(=O)c1ccc2cc1NCCCCCNC(=O)OC1CCC(C1)c1cnc(nc1)N2` (stereo not drawn) gave a ring closure, yield of all isomers in data set [1] (from CC(C)(C)OC(=O)NCCCCCNc1cc(Nc2ncc(C3CCC(OC(=O)Oc4ccc([N+](=O)[O-])cc4)C3)cn2)ccc1S(=O)(=O)NC(=O)OC(C)(C)C, other bond, DIEA, DMF, 75.0 mM, 50.0 °C, 3.0 h, 2 steps) of 39.5%.

For the compound `NS(=O)(=O)c1ccc2cc1OCCCCCNC(=O)OC1CCC(C1)c1cnc(nc1)N2` (stereo not drawn), the ring closure, yield of all isomers in data set [1] (from NCCCCCOc1cc(Nc2ncc(C3CCC(OC(=O)Oc4ccc([N+](=O)[O-])cc4)C3)cn2)ccc1S(N)(=O)=O, other bond, DIEA, DMF, 41.5 mM, 50.0 °C, 2.0 h) was 11.1%.

As to `O=C1NCCCCn2cc(cn2)S(=O)(=O)N2CCC(CC2)Nc2cc([nH]n2)[C@H]2CC[C@H](C2)O1` [Compound 94, (11S,13R,24Z,64E)-21H,61H-13-oxa-5-thia-3,11-diaza-4(4,1)-piperidina-2(5,3),6(4,1)-dipyrazola-1(1,3)-cyclopentanacyclotridecaphan-12-one 5,5-dioxide], the Ki was 0.025 to 0.1 µM at CDK2/CyclinA2 (10xKm, read-out: CDK2/CCNA2 ChEF 10xKm Ki: Average Ki); at least 0.1 µM at CDK1/CyclinB1; 0.001 to 0.025 µM at CDK9/CyclinT1 [2]; 0.025 to 0.1 µM at CDK9/CyclinT1 [3]. Also, the “CDK2/CCNA2 ChEF 10xKm Ki: CDK2/A2 Selectivity over CDK9/T1” value on CDK2/CyclinA2 (selectivity over CDK9/T1) is “A (A>10)”.

On to “(1^1S,1^3R,Z)-2^1H-15-oxa-5-thia-3,6,13-triaza-2(5,3)-pyrazola-4(1,4)-cyclohexana-1(1,3)-cyclopentanacyclopentadecaphan-14-one 5,5-dioxide”, for which the ring closure, isolated yield (other bond, 22-membered ring, TFA, then DIPEA, DCM/DCE, 4.26 mM, 25.0 °C, 2 steps) came to 50%.
